Broadly, the pIC50 is −log10 of the IC50, conventionally taken in molar units. Read a high pIC50 as a low IC50.

The structures appear in SMILES notation.

Common to all, as to test: pIC50, kinobeads binding competition
For one assay, the target named is T1, ACVR1 (UniProt Q04771).
T1 sequence (whole entry): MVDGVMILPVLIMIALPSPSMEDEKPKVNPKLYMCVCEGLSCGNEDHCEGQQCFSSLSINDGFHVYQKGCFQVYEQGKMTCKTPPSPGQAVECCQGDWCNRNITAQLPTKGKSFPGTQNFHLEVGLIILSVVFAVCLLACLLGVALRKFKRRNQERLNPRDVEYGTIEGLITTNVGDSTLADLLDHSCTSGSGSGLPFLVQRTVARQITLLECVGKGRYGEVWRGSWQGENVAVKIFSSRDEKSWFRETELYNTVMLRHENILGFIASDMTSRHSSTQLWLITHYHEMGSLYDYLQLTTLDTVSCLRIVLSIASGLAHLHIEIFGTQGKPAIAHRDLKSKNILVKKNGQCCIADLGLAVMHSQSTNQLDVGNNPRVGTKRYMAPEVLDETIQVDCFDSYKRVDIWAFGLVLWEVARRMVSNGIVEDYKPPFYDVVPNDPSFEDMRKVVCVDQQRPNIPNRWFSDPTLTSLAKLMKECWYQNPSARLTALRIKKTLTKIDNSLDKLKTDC
Summed up:
(§1)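 Either living Jurkat cells (60 min at 37 °C, then lysis) or lysates (60 min at 4 °C) were treated with nine compound concentrations from a top of 30 μM, in 1:4 steps for cells and 1:5 steps for lysates. The lysates were from Jurkat cells or a 1:1:1:1 mix of HEK293, K-562, HepG2 and placenta. Kinobeads-bound proteins were digested and quantified by TMT10 LC-MS/MS. pIC50 was calculated by logistic dose-response fitting (R drc package) of fold changes relative to vehicle, in biological duplicates.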

In another assay the target is FGFR2 (UniProt P21802). The note with it: cell material: Lysate mix. In short, it runs like this:
as §1

A further assay addresses Fyn (UniProt P06241). Summed up:
as §1

In another assay the target is HIPK1 (UniProt Q86Z02). Summed up: as §1
The target in another assay is T2, UniProt O00444.
T2 sequence (whole entry): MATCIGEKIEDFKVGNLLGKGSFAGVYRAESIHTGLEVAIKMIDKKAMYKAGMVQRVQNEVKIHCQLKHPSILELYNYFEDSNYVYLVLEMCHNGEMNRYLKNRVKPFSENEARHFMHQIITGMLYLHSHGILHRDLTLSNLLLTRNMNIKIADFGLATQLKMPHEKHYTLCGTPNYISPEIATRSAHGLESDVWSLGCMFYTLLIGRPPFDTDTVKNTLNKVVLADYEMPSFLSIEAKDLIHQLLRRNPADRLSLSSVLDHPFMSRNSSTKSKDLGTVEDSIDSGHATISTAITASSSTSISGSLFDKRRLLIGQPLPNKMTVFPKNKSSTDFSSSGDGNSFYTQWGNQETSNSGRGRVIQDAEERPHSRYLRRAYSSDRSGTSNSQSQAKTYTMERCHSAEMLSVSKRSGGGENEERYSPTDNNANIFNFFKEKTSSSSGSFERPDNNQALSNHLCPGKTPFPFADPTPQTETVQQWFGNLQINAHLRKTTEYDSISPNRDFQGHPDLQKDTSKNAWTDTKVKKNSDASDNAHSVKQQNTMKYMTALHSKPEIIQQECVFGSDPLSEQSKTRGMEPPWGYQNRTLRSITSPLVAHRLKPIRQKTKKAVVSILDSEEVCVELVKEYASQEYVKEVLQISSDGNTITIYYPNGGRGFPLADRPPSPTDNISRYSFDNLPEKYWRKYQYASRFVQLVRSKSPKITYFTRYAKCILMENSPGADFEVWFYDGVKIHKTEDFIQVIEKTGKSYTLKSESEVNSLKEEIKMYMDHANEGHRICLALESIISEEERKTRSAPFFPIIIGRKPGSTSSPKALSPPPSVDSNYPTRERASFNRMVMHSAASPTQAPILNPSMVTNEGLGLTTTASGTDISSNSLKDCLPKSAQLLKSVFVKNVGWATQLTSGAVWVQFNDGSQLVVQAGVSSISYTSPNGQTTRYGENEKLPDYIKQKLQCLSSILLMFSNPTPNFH
Summed up: as §1

In the next assay the target is UniProt P78527. Summed up: as §1
The next assay deals with UniProt Q9NSY1. In short, it runs like this:
as §1

For the next assay, the target named is T3, UniProt Q9Y2U5.
T3 sequence (whole entry): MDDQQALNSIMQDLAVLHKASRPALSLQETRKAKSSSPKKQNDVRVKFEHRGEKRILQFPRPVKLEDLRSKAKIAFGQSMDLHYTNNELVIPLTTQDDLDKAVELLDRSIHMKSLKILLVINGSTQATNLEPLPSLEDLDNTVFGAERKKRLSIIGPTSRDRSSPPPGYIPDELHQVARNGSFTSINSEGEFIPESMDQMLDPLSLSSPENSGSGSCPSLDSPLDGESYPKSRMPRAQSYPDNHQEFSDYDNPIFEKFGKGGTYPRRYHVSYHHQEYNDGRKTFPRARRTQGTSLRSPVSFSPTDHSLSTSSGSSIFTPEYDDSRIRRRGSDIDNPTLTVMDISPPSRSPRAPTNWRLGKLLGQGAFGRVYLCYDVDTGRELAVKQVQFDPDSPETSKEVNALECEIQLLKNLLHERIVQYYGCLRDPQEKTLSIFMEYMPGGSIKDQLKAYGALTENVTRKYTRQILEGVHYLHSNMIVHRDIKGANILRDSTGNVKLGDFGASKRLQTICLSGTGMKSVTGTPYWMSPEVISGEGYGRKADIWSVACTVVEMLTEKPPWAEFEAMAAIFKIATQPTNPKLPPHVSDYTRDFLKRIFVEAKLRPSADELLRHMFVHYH
In short, it runs like this: as §1

Chain of UniProt P78527 (P78527 whole entry): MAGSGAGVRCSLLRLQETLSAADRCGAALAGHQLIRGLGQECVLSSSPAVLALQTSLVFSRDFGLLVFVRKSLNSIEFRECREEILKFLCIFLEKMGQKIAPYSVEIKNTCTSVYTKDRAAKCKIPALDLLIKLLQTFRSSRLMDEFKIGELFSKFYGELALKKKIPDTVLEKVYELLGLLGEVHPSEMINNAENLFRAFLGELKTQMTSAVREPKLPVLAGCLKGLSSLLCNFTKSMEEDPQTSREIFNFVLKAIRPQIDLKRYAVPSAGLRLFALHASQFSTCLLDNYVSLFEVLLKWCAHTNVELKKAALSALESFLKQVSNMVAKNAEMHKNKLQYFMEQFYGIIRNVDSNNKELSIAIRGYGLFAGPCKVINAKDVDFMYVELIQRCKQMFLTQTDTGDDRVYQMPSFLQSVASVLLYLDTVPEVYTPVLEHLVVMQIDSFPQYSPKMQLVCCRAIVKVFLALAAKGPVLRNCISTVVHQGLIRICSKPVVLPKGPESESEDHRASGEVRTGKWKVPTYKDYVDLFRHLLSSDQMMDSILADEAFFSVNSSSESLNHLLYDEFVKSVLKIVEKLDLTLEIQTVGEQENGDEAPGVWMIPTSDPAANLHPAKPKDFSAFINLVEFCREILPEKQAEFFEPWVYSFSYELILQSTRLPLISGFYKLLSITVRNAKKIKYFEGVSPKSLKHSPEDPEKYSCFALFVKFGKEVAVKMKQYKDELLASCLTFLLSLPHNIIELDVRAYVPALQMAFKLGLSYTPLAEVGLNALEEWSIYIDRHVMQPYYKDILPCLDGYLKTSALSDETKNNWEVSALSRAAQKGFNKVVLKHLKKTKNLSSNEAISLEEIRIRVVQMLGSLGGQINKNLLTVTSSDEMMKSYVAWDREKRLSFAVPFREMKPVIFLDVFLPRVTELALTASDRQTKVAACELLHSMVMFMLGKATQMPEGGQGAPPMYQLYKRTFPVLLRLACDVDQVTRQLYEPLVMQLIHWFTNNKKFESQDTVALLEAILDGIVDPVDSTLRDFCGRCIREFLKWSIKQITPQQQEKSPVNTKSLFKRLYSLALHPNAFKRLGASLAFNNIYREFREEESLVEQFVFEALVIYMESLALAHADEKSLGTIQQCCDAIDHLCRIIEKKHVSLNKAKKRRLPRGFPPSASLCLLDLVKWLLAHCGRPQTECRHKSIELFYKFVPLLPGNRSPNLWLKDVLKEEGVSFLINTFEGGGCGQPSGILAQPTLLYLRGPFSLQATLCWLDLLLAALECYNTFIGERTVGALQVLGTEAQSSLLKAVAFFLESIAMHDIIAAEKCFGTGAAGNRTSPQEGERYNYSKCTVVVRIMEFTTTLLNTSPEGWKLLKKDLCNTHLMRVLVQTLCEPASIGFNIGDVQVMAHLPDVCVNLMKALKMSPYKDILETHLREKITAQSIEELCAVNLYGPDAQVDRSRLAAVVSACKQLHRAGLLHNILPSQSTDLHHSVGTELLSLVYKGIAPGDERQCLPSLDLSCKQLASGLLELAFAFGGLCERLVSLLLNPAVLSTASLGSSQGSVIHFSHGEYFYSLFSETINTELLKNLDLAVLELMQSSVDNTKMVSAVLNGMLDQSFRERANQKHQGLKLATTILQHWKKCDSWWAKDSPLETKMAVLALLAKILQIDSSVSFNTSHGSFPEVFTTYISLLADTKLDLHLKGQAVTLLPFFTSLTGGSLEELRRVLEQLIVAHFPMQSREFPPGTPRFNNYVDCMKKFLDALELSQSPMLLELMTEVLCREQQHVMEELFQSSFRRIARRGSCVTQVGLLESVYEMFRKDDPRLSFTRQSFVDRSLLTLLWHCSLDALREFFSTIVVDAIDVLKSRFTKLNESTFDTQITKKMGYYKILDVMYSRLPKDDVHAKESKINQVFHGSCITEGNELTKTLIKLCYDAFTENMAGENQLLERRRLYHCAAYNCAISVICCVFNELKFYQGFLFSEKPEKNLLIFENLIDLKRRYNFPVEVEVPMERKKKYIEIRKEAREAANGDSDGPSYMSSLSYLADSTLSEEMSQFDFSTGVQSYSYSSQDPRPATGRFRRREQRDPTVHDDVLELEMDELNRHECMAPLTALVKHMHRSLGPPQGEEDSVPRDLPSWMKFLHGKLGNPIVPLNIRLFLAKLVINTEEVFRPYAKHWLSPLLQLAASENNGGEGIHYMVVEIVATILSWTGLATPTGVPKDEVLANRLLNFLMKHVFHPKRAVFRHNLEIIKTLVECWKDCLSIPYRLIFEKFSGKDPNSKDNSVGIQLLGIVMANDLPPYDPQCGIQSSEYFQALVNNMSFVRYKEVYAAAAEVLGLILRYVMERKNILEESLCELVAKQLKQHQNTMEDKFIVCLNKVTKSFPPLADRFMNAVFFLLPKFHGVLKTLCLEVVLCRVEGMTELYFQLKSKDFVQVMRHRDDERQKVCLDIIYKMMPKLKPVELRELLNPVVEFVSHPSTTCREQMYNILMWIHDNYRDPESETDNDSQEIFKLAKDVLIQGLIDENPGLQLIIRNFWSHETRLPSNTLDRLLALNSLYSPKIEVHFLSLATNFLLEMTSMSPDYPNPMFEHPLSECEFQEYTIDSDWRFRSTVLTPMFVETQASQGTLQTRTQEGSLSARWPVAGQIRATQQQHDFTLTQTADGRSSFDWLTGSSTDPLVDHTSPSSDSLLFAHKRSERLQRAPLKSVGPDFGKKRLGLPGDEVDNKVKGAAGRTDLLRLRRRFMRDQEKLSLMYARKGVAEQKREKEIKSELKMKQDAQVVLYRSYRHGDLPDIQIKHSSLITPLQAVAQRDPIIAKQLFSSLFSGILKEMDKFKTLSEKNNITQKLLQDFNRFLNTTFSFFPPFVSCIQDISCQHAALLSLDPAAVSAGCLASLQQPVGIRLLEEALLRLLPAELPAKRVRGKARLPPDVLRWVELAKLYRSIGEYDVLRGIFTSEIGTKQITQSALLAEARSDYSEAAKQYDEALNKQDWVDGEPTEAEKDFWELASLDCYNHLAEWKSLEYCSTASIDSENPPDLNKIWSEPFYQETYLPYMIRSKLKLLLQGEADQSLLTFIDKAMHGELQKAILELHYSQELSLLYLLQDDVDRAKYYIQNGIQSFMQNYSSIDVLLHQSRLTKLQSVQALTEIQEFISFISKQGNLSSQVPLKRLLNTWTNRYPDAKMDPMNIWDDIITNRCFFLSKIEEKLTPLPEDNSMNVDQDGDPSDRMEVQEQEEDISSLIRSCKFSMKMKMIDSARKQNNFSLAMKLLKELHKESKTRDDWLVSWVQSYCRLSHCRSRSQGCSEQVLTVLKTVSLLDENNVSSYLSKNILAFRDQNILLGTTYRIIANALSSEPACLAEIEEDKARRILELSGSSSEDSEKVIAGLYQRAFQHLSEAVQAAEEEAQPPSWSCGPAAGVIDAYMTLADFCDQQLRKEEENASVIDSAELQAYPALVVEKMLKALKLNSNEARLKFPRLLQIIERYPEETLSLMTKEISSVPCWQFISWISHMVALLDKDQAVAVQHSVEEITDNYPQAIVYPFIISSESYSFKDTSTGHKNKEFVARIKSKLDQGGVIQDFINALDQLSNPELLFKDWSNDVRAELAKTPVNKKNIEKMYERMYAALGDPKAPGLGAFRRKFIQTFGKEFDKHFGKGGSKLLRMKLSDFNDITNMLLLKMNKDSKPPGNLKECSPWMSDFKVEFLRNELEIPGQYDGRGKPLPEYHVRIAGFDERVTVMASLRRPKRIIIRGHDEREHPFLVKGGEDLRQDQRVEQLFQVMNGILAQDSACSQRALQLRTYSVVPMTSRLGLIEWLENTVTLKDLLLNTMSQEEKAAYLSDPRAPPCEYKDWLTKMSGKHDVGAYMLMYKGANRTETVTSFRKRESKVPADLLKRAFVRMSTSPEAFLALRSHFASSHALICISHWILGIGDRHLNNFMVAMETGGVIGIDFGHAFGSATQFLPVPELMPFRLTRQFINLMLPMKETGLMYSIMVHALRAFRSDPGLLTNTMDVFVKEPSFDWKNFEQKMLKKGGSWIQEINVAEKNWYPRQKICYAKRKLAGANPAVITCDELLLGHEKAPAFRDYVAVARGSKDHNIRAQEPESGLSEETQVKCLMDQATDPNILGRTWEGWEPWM
Chain of Fyn (P06241 whole entry, looked up): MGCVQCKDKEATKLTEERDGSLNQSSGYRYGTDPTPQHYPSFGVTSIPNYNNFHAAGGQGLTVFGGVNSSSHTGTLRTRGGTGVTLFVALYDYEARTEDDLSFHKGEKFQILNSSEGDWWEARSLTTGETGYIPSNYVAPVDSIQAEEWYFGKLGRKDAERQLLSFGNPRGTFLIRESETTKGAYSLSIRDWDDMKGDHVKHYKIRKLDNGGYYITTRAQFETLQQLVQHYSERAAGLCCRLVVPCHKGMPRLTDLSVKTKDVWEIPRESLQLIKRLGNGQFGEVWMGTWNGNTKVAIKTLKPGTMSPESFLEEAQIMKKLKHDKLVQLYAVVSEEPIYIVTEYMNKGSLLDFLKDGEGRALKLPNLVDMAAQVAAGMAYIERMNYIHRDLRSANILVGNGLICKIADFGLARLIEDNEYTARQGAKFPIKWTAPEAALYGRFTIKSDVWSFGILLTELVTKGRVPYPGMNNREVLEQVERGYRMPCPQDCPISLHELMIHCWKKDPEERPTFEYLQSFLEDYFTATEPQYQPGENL

As for `C#CCNC(=O)c1cc(Nc2cc(C)[nH]n2)nc(N2CCN(Cc3ccc(S(=O)(=O)F)cc3)CC2)n1`, the pIC50 at ACVR1 (cell material: Lysate mix) is below 4.52; at FGFR2, below 4.52; on Fyn (cell material: Lysate mix), 5.93; on HIPK1 (cell material: Lysate mix) it was 5.06; on UniProt O00444 (cell material: Lysate mix) it was 5.39; on UniProt P78527 (cell material: Lysate mix), below 4.52. Besides, the pIC50 at UniProt Q9NSY1 (cell material: Lysate mix) is below 4.52; at UniProt Q9Y2U5 (cell material: Lysate mix) it was 4.82.
`O=C(NCCNC(=O)c1cc(Nc2cc(C3CC3)[nH]n2)nc(N2CCN(Cc3ccc(S(=O)(=O)F)cc3)CC2)n1)OC1CC/C=C/CCC1` (centres undefined): the negative logarithm of the IC50 (pIC50) on ACVR1 (cell material: Jurkat cells) is 4.68; on ACVR1 (cell material: Jurkat lysate), below 4.52; at ACVR1 (cell material: Lysate mix) it was below 4.52; on FGFR2, below 4.52; on Fyn (cell material: Jurkat cells), 5.1; on Fyn (cell material: Jurkat lysate) it was below 4.52. In addition, the pIC50 on Fyn (cell material: Lysate mix) is below 4.52; on HIPK1 (cell material: Jurkat cells), 5.3; on HIPK1 (cell material: Jurkat lysate), below 4.52; at HIPK1 (cell material: Lysate mix), below 4.52; at UniProt O00444 (cell material: Jurkat cells), 5.5; on UniProt O00444 (cell material: Jurkat lysate), below 4.52. The pIC50 at UniProt O00444 (cell material: Lysate mix), at UniProt P78527 (cell material: Jurkat cells), on UniProt P78527 (cell material: Jurkat lysate), on UniProt P78527 (cell material: Lysate mix), at UniProt Q9NSY1 (cell material: Jurkat cells) and on UniProt Q9NSY1 (cell material: Jurkat lysate) was below 4.52 throughout. Also, the pIC50 on UniProt Q9NSY1 (cell material: Lysate mix) was below 4.52; at UniProt Q9Y2U5 (cell material: Jurkat cells), 5.38; on UniProt Q9Y2U5 (cell material: Jurkat lysate) it was below 4.52; at UniProt Q9Y2U5 (cell material: Lysate mix) it was below 4.52.
With `CCNC(=O)c1cc(Nc2cc(C3CC3)[nH]n2)nc(N2CCN(Cc3ccc(S(=O)(=O)F)cc3)CC2)n1`, the pIC50 at ACVR1 (cell material: Lysate mix) was 4.74; at FGFR2 it was 5.24; on Fyn (cell material: Lysate mix), 5.81; on HIPK1 (cell material: Lysate mix) it was 5.78; on UniProt O00444 (cell material: Lysate mix) it was 5.81; on UniProt P78527 (cell material: Lysate mix) it was below 4.52. The negative logarithm of the IC50 (pIC50) at UniProt Q9NSY1 (cell material: Lysate mix) was below 4.52; at UniProt Q9Y2U5 (cell material: Lysate mix), 5.29.
With `Cc1cc(Nc2cc(C(=O)NCCNC(=O)OC3CC/C=C/CCC3)nc(N3CCN(Cc4ccc(S(=O)(=O)F)cc4)CC3)n2)n[nH]1` (centres undefined), the negative logarithm of the IC50 (pIC50) was below 4.52 at ACVR1 (cell material: Lysate mix); below 4.52 on FGFR2; 4.58 on Fyn (cell material: Lysate mix); below 4.52 on HIPK1 (cell material: Lysate mix); below 4.52 at UniProt O00444 (cell material: Lysate mix); below 4.52 on UniProt P78527 (cell material: Lysate mix). Further, the negative-log IC50 (pIC50) on UniProt Q9NSY1 (cell material: Lysate mix) and at UniProt Q9Y2U5 (cell material: Lysate mix) was below 4.52 throughout.
With `CCNC(=O)c1cc(Nc2cc(C)[nH]n2)nc(N2CCN(Cc3ccc(S(=O)(=O)F)cc3)CC2)n1`, the negative-log IC50 (pIC50) is below 4.52 on ACVR1 (cell material: Lysate mix); below 4.52 at FGFR2; 6.74 at Fyn (cell material: Lysate mix); 4.78 on HIPK1 (cell material: Lysate mix); 5.97 on UniProt O00444 (cell material: Lysate mix); below 4.52 on UniProt P78527 (cell material: Lysate mix). For the same compound, the pIC50 at UniProt Q9NSY1 (cell material: Lysate mix) is below 4.52; on UniProt Q9Y2U5 (cell material: Lysate mix), 4.67.
In the case of `C#CCNC(=O)c1cc(Nc2cc(C3CC3)[nH]n2)nc(N2CCN(Cc3ccc(S(=O)(=O)F)cc3)CC2)n1`, the pIC50 on ACVR1 (cell material: Jurkat cells) was 5.78; on ACVR1 (cell material: Jurkat lysate), 4.66; on ACVR1 (cell material: Lysate mix), 5.14; at FGFR2, 4.94; on Fyn (cell material: Jurkat cells) it was 5.9; on Fyn (cell material: Lysate mix) it was 5.9. Besides, the pIC50 turned out to be 6.08 on HIPK1 (cell material: Jurkat cells); 5.37 at HIPK1 (cell material: Jurkat lysate); 6 at HIPK1 (cell material: Lysate mix); 5.96 on UniProt O00444 (cell material: Jurkat cells); 5.44 on UniProt O00444 (cell material: Jurkat lysate); 6.02 at UniProt O00444 (cell material: Lysate mix). Also, the pIC50 is below 4.52 at UniProt P78527 (cell material: Jurkat cells); below 4.52 on UniProt P78527 (cell material: Jurkat lysate); below 4.52 at UniProt P78527 (cell material: Lysate mix); 5.24 on UniProt Q9NSY1 (cell material: Jurkat cells); below 4.52 on UniProt Q9NSY1 (cell material: Jurkat lysate); below 4.52 on UniProt Q9NSY1 (cell material: Lysate mix). Moreover, the pIC50 was 5.84 on UniProt Q9Y2U5 (cell material: Jurkat cells) and 5.47 on UniProt Q9Y2U5 (cell material: Lysate mix).
